# Reference: ChEMBL document CHEMBL1926684, “Constituents of Trigonostemon heterophyllus” (J Nat Prod, 2011)
# pIC50: −log10 of the molar value.
# Assays:
# [1] = test system: HL-60; test: Cytotoxicity against human HL60 cells by MTT assay; assay type: functional, cell-based
# [2] = test system: A549; test: Cytotoxicity against human A549 cells by SRB assay; assay type: functional, cell-based
Compound,pIC50 [1],pIC50 [2]
C=C(C)[C@@]1(OC(C)=O)[C@H](OC(C)=O)[C@@H]2[C@H](OC(C)=O)[C@@]3(C)O[C@@]4([C@@H]3OC(C)=O)[C@@H](OC(=O)c3ccccc3)[C@](C)(OC(C)=O)C[C@H]4[C@@]2(O)[C@H](C)[C@@H]1OC(=O)c1ccccc1 (relative stereo),< 5.00,< 5.00
C=C(C)[C@@]1(OC(C)=O)[C@H](OC(C)=O)[C@@H]2[C@H](OC(C)=O)[C@@]3(C)O[C@@]4([C@@H]3OC(C)=O)[C@@H](OC(=O)c3ccccc3)[C@@H](C)C[C@H]4[C@@]2(O)[C@H](C)[C@@H]1OC(=O)c1ccccc1 [TRIGOHETERIN B],< 5.00,< 5.00
C=C(C)[C@@]12OC3(c4ccccc4)O[C@@H]1[C@@H]1[C@H](OC(C)=O)[C@@](C)(O)[C@@H](OC(=O)c4ccccc4)[C@@]4(O)[C@@H](C[C@H](C)[C@@H]4OC(C)=O)[C@@]1(O3)[C@H](C)[C@@H]2OC(C)=O (relative stereo),< 5.00,< 5.00
C=C(C)[C@@]12OC3(C)O[C@@H]1[C@@H]1[C@H](O)[C@@](C)(O)[C@@H](O)[C@@]4(O)[C@@H](C[C@H](C)[C@@H]4OC(C)=O)[C@@]1(O3)[C@H](C)[C@@H]2OC(=O)CCc1ccccc1 (relative stereo),< 5.00,< 5.00
C=C(C)[C@@]12OC3(c4ccccc4)O[C@@H]1[C@@H]1[C@H]4O[C@@]4(C)[C@@H](O)[C@]4(O)C(=O)[C@@H](C)C[C@H]4[C@@]1(O3)[C@H](C)[C@@H]2OC(=O)c1ccccc1 (relative stereo),5.74,5.00
CC(C)=CC(=O)C(O)/C(C)=C/CC[C@](C)(O)C1CCC(C)=CC1=O (some centres not stated),< 5.00,< 5.00
